Source: US20050032708A1, “Modulation of physiological processes and agents useful for same” (priority 2001, published 2005)
Entries after “also recorded” stand apart in the source; their conditions may differ.

Experiments:
[1] = cited from earlier work
Male Sprague Dawley rats = test: Effect of amphetamine on locomotor activity of rats receiving NAC in drinking water; type: in vivo
Protocol: (§1) Male Sprague Dawley rats (380-430 g) were obtained from Department of Pathology, University of Melbourne. On arrival rats were housed in pairs in a temperature-controlled (20-24° C.) colony room maintained on a 12 hr light-dark cycle (6 am-6 pm). Rats had continuous access to food and water (plain or treated) and were weighed on arrival and then daily from onset of experiment. Rats were allowed to adjust to the new environment for 3 days before starting the experiment.
(§2) This experiment consisted of 24 rats in total. Eight rats received plain drinking water (controls), 8 rats received 0.5% NAC (Sigma) in their drinking water (low dose) and 8 rats received 2% NAC in their drinking water (high dose). Drug treatment was administered for 14 consecutive days. Bottles were cleaned and fresh drug solution was made up on days 4, 8 and 11. Body weights and amount of drinking water consumed per box were measured on a daily basis. After 7 days of drug treatment, behavioural testing began and continued until day 14 of treatment.
Locomotor activity was assessed in 8 automated photo cell cages, data being collected in 5-min intervals. Animals were placed individually in cages and baseline activity was measured during the first 30 minutes. After 30 minutes rats received a subcutaneous injection of either saline (vehicle), 0.5 mg/kg or 5 mg/kg amphetamine and locomotor activity was measured for a further 90 minutes. Drug treatment and time of day of the experiment were both randomised (see table 1). Each rat received 3 locomotor sessions in total. A period of 3 days was allowed between locomotor experiments to ensure complete elimination of amphetamine.
Locomotor hyperactivity was obtained as total distance moved per 30 min, i.e. before injection and 0-30 min, 30-60 min and 60-90 min after injection. In order to account for slight variations in baseline activity, post-injection behaviour was expressed a change of baseline activity. Average data for rats receiving water, 0.5% NAC, or 2% NAC was compared using analysis of variance for repeated measures (ANOVA) using the Systat 9.0 software package.

[2] = Body weights and daily water consumption of rats receiving NAC in drinking water for 14 days; type: in vivo
Protocol: as §1, §2

humans = settings: cited from earlier work
[3] = 600-1200 mg/day for three weeks, Ziegler and Gries, 1997

O=C1O[C@H]([C@@H](O)CO)C(O)=C1O [Vitamin C]
Elevation of plasma levels ([1]; 500 mg daily): 60%

O=C(O)CCCCC1CCSS1 (stereo not drawn) [Alpha-lipoic Acid]
Symptoms of diabetic neuropathy [1, 3]: reproducibly demonstrated benefit | Tolerability [1, 3]: tolerated with no adverse effects

CC(N)Cc1ccccc1 (stereo not drawn) [amphetamine]
Locomotor activity after subcutaneous injection of amphetamine (Male Sprague Dawley rats; 0.5 mg/kg of amphetamine, 90 min after injection): induced a behavioural hyperactivity | Locomotor activity after subcutaneous injection of amphetamine (Male Sprague Dawley rats; 5 mg/kg of amphetamine, activity fell to low levels later in the 90 min observation period): initially induced marked behavioural hyperactivity

Cc1c(C)c2c(c(C)c1O)CC[C@@](C)(CCC[C@H](C)CCC[C@H](C)CCCC(C)C)O2 [alpha-tocopherol]
Adverse effects ([1]; 400 IU): without causing adverse effects | CSF levels ([1]; 400 IU): sufficient to increase CSF levels | Doses that may cause coagulopathies and can be a source of radicals ([1]; Bowry et al., 1995): higher than 2000 IU/day

CC(=O)N[C@@H](CS)C(=O)O [NAC, N-acetyl cysteine]
Average daily water consumption per box ([2]; 0.5% NAC in drinking water (low dose), 14 days of treatment, control rats 77-90 ml): 60 to 72 mL | Body weight over the treatment period compared with controls ([2]; 2% NAC in drinking water (high dose), 14 days): marked decrease in body weight | Interaction of treatment x time, 5 mg/kg of amphetamine, vs controls (significant or not) (Male Sprague Dawley rats; 0.5% NAC): not | Overall effect of 0.5 mg/kg of amphetamine on locomotor activity vs water controls (Male Sprague Dawley rats; 0.5% NAC in drinking water, F(1,14)=5.11, P=0.04): tended to be greater | Baseline locomotor activity before injection, averaged over three sessions, vs water controls (Male Sprague Dawley rats; 0.5% or 2% NAC in drinking water, difference did not reach statistical significance): tended to be lower | Duration of locomotor hyperactivity after 5 mg/kg of amphetamine (Male Sprague Dawley rats; 2% NAC): maintained longer than in controls; also recorded: prolonged effect | Overall effect of 0.5 mg/kg of amphetamine on locomotor activity vs water controls (Male Sprague Dawley rats; 2% NAC in drinking water, F(1,13)=4.3, P=0.06): tended to be greater | Overall effect of 5 mg/kg of amphetamine on locomotor activity vs controls (Male Sprague Dawley rats; 2% NAC to drink, failed to reach overall statistical significance): tended to be greater | Interaction of treatment x time, 5 mg/kg of amphetamine, vs controls (Male Sprague Dawley rats; 2% NAC, F(2,28)=4.9, P=0.024): significant | Maximal effect of 0.5 mg/kg of amphetamine on locomotor activity vs water controls (Male Sprague Dawley rats; 30-60 min after injection, either NAC dose (0.5% or 2%), 0.5 mg/kg): significantly greater; also recorded: greater maximal effect | Plasma cystine levels (humans; dose of 3 g/day (4 capsules, 2 bid)): sustains elevated plasma cystine levels | Human dosing without adverse effects (humans; human, Louwerse et al., 1995): up to 5 g/day

C[Se]CC[C@H](N)C(=O)O [Selenomethionione]
Adverse effects of long-term dose ([1]; 200 ug, one per day): no known adverse effects
